Calls of active or inactive are those of the source. The rule behind the calls is not given here.
Columns and labels:
HUVEC [1] = experiment: Induction of cell cycle arrest in HUVEC assessed as accumulation at G2/M phase at 20 uM after 24 hrs by flow cytometry; assay type: functional, Homo sapiens
HUVEC [2] = experiment: Induction of cell cycle arrest in HUVEC assessed as accumulation at G1 phase at 20 uM after 24 hrs by flow cytometry; assay type: functional, Homo sapiens
Tubulin (Homo sapiens) = Tubulin (Homo sapiens) (UniProt P68371+Q9H4B7+P0DPH7+P68366+Q13509+Q71U36+P04350+Q3ZCM7+P07437+P68363+Q9BQE3+Q6PEY2+Q13885+Q9BVA1+Q9BUF5); experiment: Inhibition of tubulin polymerization in HUVEC at 20 uM by fluorescence staining; assay type: cell-based
HUVEC [3] = experiment: Antiangiogenic activity in HUVEC assessed as complete inhibition of tube formation at 40 uM; assay type: functional, cell-based; details: Homo sapiens
[4] = molecular target: Somatostatin receptor type 5 (Homo sapiens, UniProt P35346); experiment: Binding affinity to human SSTR5
Sequence of Somatostatin receptor type 5 (P35346 whole entry): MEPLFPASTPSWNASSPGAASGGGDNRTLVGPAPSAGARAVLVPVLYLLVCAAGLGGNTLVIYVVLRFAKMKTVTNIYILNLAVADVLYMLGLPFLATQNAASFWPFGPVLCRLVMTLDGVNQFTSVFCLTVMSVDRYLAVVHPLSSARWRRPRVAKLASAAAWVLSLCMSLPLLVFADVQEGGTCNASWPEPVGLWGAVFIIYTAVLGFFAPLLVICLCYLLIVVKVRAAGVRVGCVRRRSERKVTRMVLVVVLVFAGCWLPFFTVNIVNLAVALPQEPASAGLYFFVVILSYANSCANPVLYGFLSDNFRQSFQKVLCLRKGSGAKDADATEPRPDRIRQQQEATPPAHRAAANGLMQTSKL

HUVEC [5] = experiment: Induction of cell cycle arrest in HUVEC assessed as accumulation at S phase at 20 uM after 24 hrs by flow cytometry; assay type: functional, Homo sapiens
HUVEC [6] = experiment: Inhibition of HUVEC migration at 20 uM by scratch-wound healing assay; assay type: functional, cell-based; details: Homo sapiens
HUVEC [7] = experiment: Induction of apoptosis in HUVEC assessed as change in mitochondrial membrane potential at 10 to 20 uM after 48 hrs by JC1 staining; assay type: functional, cell-based; details: Homo sapiens
HUVEC [8] = experiment: Antiangiogenic activity in HUVEC assessed as partial inhibition of tube formation at 20 uM; assay type: functional, cell-based; details: Homo sapiens
[9] = molecular target: Somatostatin receptor type 4 (Homo sapiens, UniProt P31391); experiment: Binding affinity to human SSTR4
Sequence of Somatostatin receptor type 4 (P31391 whole entry): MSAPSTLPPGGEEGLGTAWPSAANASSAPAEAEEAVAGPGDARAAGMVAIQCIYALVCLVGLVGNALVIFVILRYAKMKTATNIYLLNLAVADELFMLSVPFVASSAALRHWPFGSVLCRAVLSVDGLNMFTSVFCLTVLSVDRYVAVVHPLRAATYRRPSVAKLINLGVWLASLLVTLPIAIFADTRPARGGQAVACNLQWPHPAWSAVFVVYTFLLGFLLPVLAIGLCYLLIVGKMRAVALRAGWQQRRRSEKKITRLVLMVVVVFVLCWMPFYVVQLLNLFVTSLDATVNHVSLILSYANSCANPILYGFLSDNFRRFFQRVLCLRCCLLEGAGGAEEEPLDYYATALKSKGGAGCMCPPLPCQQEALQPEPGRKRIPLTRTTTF

HUVEC [10] = experiment: Induction of apoptosis in HUVEC at 10 to 20 uM after 48 hrs by fluorescence assay; assay type: functional, cell-based; details: Homo sapiens
HUVEC [11] = experiment: Cytotoxicity against HUVEC after 72 hrs by MTT assay; assay type: cell-based; details: Homo sapiens

inhibition (Tubulin (Homo sapiens)): Active
Ki [4]: 5 µM
Ki [9]: 4.4 µM
Compound: NCCCCCOC[C@@H]1[C@@H](OCc2ccccc2)[C@H](OCc2ccccc2)[C@@H](OCc2ccccc2)CN1CCc1c[nH]c2ccccc12
Activity (HUVEC [1]): 16.27%
Activity (HUVEC [2]): 70.39%
inhibition (HUVEC [3]): Active
Activity (HUVEC [5]): 13.81%
inhibition (HUVEC [6]): Active
Activity (HUVEC [7]): Active
inhibition (HUVEC [8]): Active
Activity (HUVEC [10]): Active
IC50 (HUVEC [11]): 12.6 µM

— ChEMBL document CHEMBL1641483, “Biological study of a somatostatin mimetic based on the 1-deoxynojrimycin scaffold” (Bioorg Med Chem Lett, 2011)
